The values that follow come from US20080293772A1, “SALTS OF PICOTAMIDE” (priority 2007, published 2008).

Where a name gives a salt, the structure may show the parent alone. Read-outs that look alike come from different tables or passages of the source.

Series [1] can be described thus: Picotamide salt stability, degradation determined by HPLC. Here is the method:
If a spontaneous crystallization occurs after the salt formation, the solid is isolated by filtration.
Column: Phenomenex Hypersil C18-BDS, 4.6×150 mm, 5 μm, flow 1 ml/min, 25° C., detection at 254 nm. Ammonium acetate buffer 10 mM, pH 9, containing 15% methanol. After 17 min, the percentage of methanol is increased to 80%. The sample is dissolved in methanol/water 1:1.
Salts were formed in THF.

Series [2] in a line: Picotamide stability under acidic conditions (HPLC content). The series is classed as physicochemical. The following applies: hydrochloric acid 1 M, three days. Here is the method: The sample is dissolved in methanol/water 1:1.
Picotamide is dissolved in hydrochloric acid 1 M and stored at room temperature and 50° C. for three days.

The conditions of series [3]: man, after oral administration; cited from earlier work.

On to `CC(=O)O` [Acetate], for which the Degradation in series [1] was 0.6%. For `COc1ccc(C(=O)NCc2cccnc2)cc1C(=O)NCc1cccnc1` [Picotamide, N,N′-bis-(3-picolyl)-4-methoxyisophthalamide], the results for the picotamide content in series [2] (50° C.) and in series [2] (room temperature) were 98.1% and 99.2%, respectively.

In the case of `COc1ccc(C(=O)NCc2cccnc2)cc1C(=O)NCc1cccnc1` [anhydrous picotamide], the “time needed to reach the maximum inhibitory effect” value in series [3] was 8 h. Turning to `Br` [hydrobromide], the Degradation in series [1] is 35%.

For `COc1ccc(C(=O)NCc2cccnc2)cc1C(=O)NCc1cccnc1` [hydrochloride (anhydrous)], the Degradation in series [1] stood at 0.0%. On the same count and under the same terms, the same measure for `COc1ccc(C(=O)NCc2cccnc2)cc1C(=O)NCc1cccnc1` [hydrochloride]: 0.6%; for `O=S(=O)(O)O` [sulfate]: 0.1%. In the case of citrate, the Degradation in series [1] (salts formed in THF, HPLC) worked out at 0.2%.

For fumarate, the Degradation in series [1] (salts formed in THF, HPLC) was 6.7%. As for maleate, the Degradation in series [1] (salts formed in THF, HPLC) was found to be 11.5%. On to oxalate, for which the Degradation in series [1] (salts formed in THF, HPLC) came to 0.4%. For the compound tartrate [reference compound], in series [1] (salts formed in THF, HPLC), the Degradation amounted to 0.1%.
